Paper PMC3509320 (Journal of medicinal chemistry, 2012)

Tests used:
[1] = target: h5-HT4 (Homo sapiens, UniProt Q13639); experiment: 5-HT4R intrinsic activity functional assay; conditions: h5-HT4, functional assay at CEREP
[2] = SPECT tracer ref 19; cited from earlier work
[3] = target: 5-HT4R (Rattus norvegicus, UniProt Q62758); experiment: In vitro autoradiographic competition with [125I]1 on rat brain sections; assay type: binding
[4] = target: 5-HT4R (Mus musculus, UniProt P97288); experiment: In vivo competition with [125I]1, ex vivo autoradiography of mouse brain
Chain of 5-HT4R (Mus musculus, UniProt P97288) (P97288 whole entry): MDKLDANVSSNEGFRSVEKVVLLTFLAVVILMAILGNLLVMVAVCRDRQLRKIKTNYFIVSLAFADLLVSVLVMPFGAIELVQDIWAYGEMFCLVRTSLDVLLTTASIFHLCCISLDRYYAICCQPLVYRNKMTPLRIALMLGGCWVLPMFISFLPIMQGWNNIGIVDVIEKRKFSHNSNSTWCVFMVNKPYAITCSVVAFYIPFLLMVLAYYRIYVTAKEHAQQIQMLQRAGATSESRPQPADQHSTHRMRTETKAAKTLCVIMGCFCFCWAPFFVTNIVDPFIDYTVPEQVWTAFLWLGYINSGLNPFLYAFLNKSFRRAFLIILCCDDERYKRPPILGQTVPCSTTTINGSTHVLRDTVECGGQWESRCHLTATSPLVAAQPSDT

Chain of h5-HT4 (Q13639 whole entry): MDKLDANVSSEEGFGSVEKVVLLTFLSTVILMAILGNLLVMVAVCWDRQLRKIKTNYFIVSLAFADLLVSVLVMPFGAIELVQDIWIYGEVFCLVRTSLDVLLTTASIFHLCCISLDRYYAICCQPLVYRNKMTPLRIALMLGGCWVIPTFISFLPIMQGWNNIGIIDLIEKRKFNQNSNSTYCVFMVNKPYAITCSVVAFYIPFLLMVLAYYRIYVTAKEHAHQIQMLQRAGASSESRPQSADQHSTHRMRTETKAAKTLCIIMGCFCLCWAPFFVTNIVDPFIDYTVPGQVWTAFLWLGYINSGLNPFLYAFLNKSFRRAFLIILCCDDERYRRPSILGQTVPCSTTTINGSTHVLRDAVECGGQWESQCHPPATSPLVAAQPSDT
Chain of 5-HT4R (Rattus norvegicus, UniProt Q62758) (Q62758 whole entry): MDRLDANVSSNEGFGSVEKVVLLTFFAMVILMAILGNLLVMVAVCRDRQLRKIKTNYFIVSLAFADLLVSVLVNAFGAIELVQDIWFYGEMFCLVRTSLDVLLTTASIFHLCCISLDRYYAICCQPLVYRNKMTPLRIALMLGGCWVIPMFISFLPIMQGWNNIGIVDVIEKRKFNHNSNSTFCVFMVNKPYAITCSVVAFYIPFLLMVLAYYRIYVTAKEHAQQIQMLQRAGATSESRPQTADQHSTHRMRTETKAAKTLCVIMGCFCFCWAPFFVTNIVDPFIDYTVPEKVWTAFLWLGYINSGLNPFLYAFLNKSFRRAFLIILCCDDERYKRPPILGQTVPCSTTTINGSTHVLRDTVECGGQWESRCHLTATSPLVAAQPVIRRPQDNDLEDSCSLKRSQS

For `CCCN1CCC(COc2nc3c(F)cccc3c3ncccc23)CC1` [Compound 4v, 7-Fluoro-5-(1-propylpiperidin-4-yl)methyloxybenzo[h]-1,6-naphthyridine], the “efficacy (intrinsic activity)” value [1] was “full antagonists”.
In the case of `CCCCN1CCC(COC(=O)c2cc([123I])c(N)c3c2OCCO3)CC1` [[^123I]1, (1-butylpiperidin-4-yl)methyl-8-amino-7-iodo[^123I]-2,3-dihydrobenzo[b][1,4]dioxine-5-carboxylate], the brain penetration [2] is given as “low brain penetration” and the metabolism [2] is given as “rapid metabolism”.
With `Fc1cccc2c1nc(OCC1CCN(CCCc3ccc(I)cc3)CC1)c1cccnc12` [Compound 11d, 7-Fluoro-5-{1-[3-(4-iodophenyl)propyl]piperidin-4-yl}methyloxybenzo[h]-1,6-naphthyridine] the “5-HT4R-specific [125I]1 radioactivity in autoradiograms” value ([3]; 10 pM of 11d with 100 pM [125I]1, rat brain sections) was “decrease in the 5-HT4R-specific radioactivity”, the “5-HT4R-specific [125I]1 radioactivity in autoradiograms” value ([3]; 1 nM of 11d with 100 pM [125I]1, rat brain sections) was “almost complete abolishment of the signal” and the “blood brain barrier crossing” value ([4]; i.v. 50 µg/kg) was “able to cross the blood brain barrier”. The “specific binding of [125I]1 ex vivo” value ([4]; i.v. co-injection of 50 µg/kg 11d, compared to [125I]1 alone) was “markedly reduced” and the “efficacy (intrinsic activity)” value [1] was “full antagonists”.
For `CCCN1CCC(COc2nc3c(I)cccc3c3ccccc23)CC1` [Compound 11a, 4-Iodo-6-(1-propylpiperidin-4-yl)methyloxyphenanthridine], the “efficacy (intrinsic activity)” value [1] was “full antagonists”.
For `CCCN1CCC(COc2nc3c(I)cccc3c3ncccc23)CC1` [Compound 11b, 7-Iodo-5-(1-propylpiperidin-4-yl)methyloxybenzo[h]-1,6-naphthyridine], the “efficacy (intrinsic activity)” value [1] was “full antagonists”.
